According to article PMC11951083, “Highly Specific Miniaturized Fluorescent Monoacylglycerol Lipase Probes Enable Translational Research” (Journal of the American Chemical Society, 2025):

Molecular target: T1, MAGL (Homo sapiens, UniProt Q99685)
T1 sequence (Q99685 1-303): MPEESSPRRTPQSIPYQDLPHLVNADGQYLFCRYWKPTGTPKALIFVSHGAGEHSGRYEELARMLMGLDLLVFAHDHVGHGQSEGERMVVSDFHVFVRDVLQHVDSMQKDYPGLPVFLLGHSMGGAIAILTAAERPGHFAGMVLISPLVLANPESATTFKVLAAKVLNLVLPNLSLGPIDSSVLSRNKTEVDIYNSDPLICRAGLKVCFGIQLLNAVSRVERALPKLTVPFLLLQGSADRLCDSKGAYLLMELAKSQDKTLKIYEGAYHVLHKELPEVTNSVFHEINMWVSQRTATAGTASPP
Assay: Fluorescence polarization titration of probe 5 with purified hMAGL
Format: binding
Settings: FP titration, probe 20 nM
Description: Fluorescence Polarization Assay
Determination of the Kd of the fluorescent probes
Commercially available purified hMAGL protein (Cepter Biopartners, Nutley, NJ, USA) was diluted in PBS-buffer pH 7.4 + 0.1% Tween 80, in a range of concentrations and incubated with compound 5 (20 nM = [L]T) at ambient temperature for 60 min. Fluorescence polarization was determined via a Tecan Spark multimode plate reader (Ex/Em = 482/502 nm , 7.5 nm bandwidth each) in a 384 flat black well plate (Corning); six measurements per data point. The experiment was carried out in triplicate. Data were analyzed via GraphPad Prism 5.0 software. K d of the fluoroprobe was calculated from the observed MAGL concentration at half-maximal FP (FP50) as follows.
K = [L][P] = 0.5 [L]T (FP50 − 0.5 [L]T) = FP − 0.5 [L]
Competitive FP Binding Assay hMAGL in PBS-buffer pH 7.4 + 0.1% tween 80 at a final concentration of 50 nM was incubated with a range of inhibitor DMSO solutions (5µL) (serial dilution 1:3) for 30 min at ambient temperature in a 384 flat black well plate (Corning). […] After 30 min incubation at ambient temperature, fluorescence polarization was determined as described above. Data were analyzed via GraphPad Prism 5.0 software, and IC50 values were converted to Ki according to Nikolovska-Coleska et al. 28 Under these conditions the assay performed with an average z´= 0.90. […]

SMILES: O=C(N1CC2(CC(CC3=C4C=CC=[N+]4[B-](F)(F)n4cccc43)C2)C1)N1CC2(CC(n3cnc(C4CC4)n3)C2)C1 [Compound 5]
- Kd: 6.65 nM
